Data on three compounds can be found in ChEMBL document CHEMBL3621205, “High-Throughput Screening of Patient-Derived Cultures Reveals Potential for Precision Medicine in Glioblastoma” (ACS Med Chem Lett, 2015).

The structures appear in SMILES notation. Activity calls are given as the source filed them. No cut-off for these calls is given here.

Common to all, as to assay type: functional, cell-based
Experiment [1] has as its system Glioma. As to the kind of experiment: Decrease in phosphorylated S6 ribosomal protein level at Ser235 residue in human Glioma cells (HF2476) by western blot analysis.
In experiment [2] the test system is Glioma. As to the kind of experiment: Decrease in phosphorylated S6 ribosomal protein level at Ser236 residue in human Glioma cells (HF2476) by western blot analysis. On the technique in general: Immunoblotting shows a protein as a band on a membrane.
Experiment [3] concerns Glioma. As to the kind of experiment: Decrease in phosphorylated S6 ribosomal protein level at Ser235 residue in human Glioma cells (HF2876) by western blot analysis.
Experiment [4] concerns Glioma. As to the kind of experiment: Decrease in phosphorylated S6 ribosomal protein level at Ser236 residue in human Glioma cells (HF2876) by western blot analysis.
Experiment [5] relates to Glioma. As to the kind of experiment: Cytotoxicity against human Glioma cells (HF2476) after 72 hrs by CelltiterGlo assay in presence of Bcl2-inhibitor ABT-263. For orientation: ATP-based viability assays read luminescence as a measure of living cells.
The test system of experiment [6] is Glioma. As to the kind of experiment: Cytotoxicity against human Glioma cells (HF3013) after 72 hrs by CelltiterGlo assay in presence of Bcl2-inhibitor ABT-263.
The subject of experiment [7] is Glioma. As to the kind of experiment: Cytotoxicity against human Glioma cells (HF2303) after 72 hrs by CelltiterGlo assay in presence of Bcl2-inhibitor ABT-263.
Experiment [8] deals with Glioma. As to the kind of experiment: Cytotoxicity against human Glioma cells (HF2876) after 72 hrs by CelltiterGlo assay in presence of Bcl2-inhibitor ABT-263.
The subject of experiment [9] is Glioma. As to the kind of experiment: Cytotoxicity against human Glioma cells (HF2303) after 72 hrs by CelltiterGlo assay.
The test system of experiment [10] is Glioma. As to the kind of experiment: Cytotoxicity against human Glioma cells (HF2476) after 72 hrs by CelltiterGlo assay.
Experiment [11] relates to Glioma. As to the kind of experiment: Cytotoxicity against human Glioma cells (HF2876) after 72 hrs by CelltiterGlo assay.
Experiment [12] deals with Glioma. As to the kind of experiment: Cytotoxicity against human Glioma cells (HF3013) after 72 hrs by CelltiterGlo assay.
The test system of experiment [13] is Glioma. As to the kind of experiment: Induction of apoptosis in human Glioma cells (HF2476) assessed as increase in cleaved caspase-3 level by western blot analysis.
Experiment [14] relates to Glioma. As to the kind of experiment: Induction of apoptosis in human Glioma cells (HF2876) assessed as increase in cleaved caspase-3 level by western blot analysis.
The subject of experiment [15] is Glioma. As to the kind of experiment: Cytotoxicity against human Glioma cells (HF2476) after 72 hrs by CelltiterGlo assay in presence of mTOR inhibitor AZD-8055.
The test system of experiment [16] is Glioma. As to the kind of experiment: Cytotoxicity against human Glioma cells (HF3013) after 72 hrs by CelltiterGlo assay in presence of mTOR inhibitor AZD-8055.
Experiment [17] concerns Glioma. As to the kind of experiment: Cytotoxicity against human Glioma cells (HF2303) after 72 hrs by CelltiterGlo assay in presence of mTOR inhibitor AZD-8055.
Experiment [18] deals with Glioma. As to the kind of experiment: Cytotoxicity against human Glioma cells (HF2876) after 72 hrs by CelltiterGlo assay in presence of mTOR inhibitor AZD-8055.
Experiment [19] has as its system Glioma. As to the kind of experiment: Cytotoxicity against human Glioma cells (HF2303) at 50 uM after 72 hrs by CelltiterGlo assay.
The subject of experiment [20] is Glioma. As to the kind of experiment: Cytotoxicity against human Glioma cells (HF2381) at 50 uM after 72 hrs by CelltiterGlo assay.
The subject of experiment [21] is Glioma. As to the kind of experiment: Cytotoxicity against human Glioma cells (HF2476) at 50 uM after 72 hrs by CelltiterGlo assay.
The subject of experiment [22] is Glioma. As to the kind of experiment: Cytotoxicity against human Glioma cells (HF2790) at 50 uM after 72 hrs by CelltiterGlo assay.
For experiment [23], the system named is Glioma. As to the kind of experiment: Cytotoxicity against human Glioma cells (HF2876) at 50 uM after 72 hrs by CelltiterGlo assay.
The test system of experiment [24] is Glioma. As to the kind of experiment: Cytotoxicity against human Glioma cells (HF2885) at 50 uM after 72 hrs by CelltiterGlo assay.
In experiment [25] the test system is Glioma. As to the kind of experiment: Cytotoxicity against human Glioma cells (HF3013) at 50 uM after 72 hrs by CelltiterGlo assay.

As to `COc1ccc(-c2ccc3c(N4CCOC[C@@H]4C)nc(N4CCOC[C@@H]4C)nc3n2)cc1CO`, the inhibition entry in the experiment on Glioma [1], in the experiment with Glioma [2], with Glioma [3] and in the experiment on Glioma [4] was “Active” each time. Besides, the result in the experiment on Glioma [5] and in the experiment on Glioma [6] was Active. For the same compound, the result in the experiment with Glioma [7] and with Glioma [8] was inactive.

On to `CC1(C)CCC(c2ccc(Cl)cc2)=C(CN2CCN(c3ccc(C(=O)NS(=O)(=O)c4ccc(N[C@H](CCN5CCOCC5)CSc5ccccc5)c(S(=O)(=O)C(F)(F)F)c4)cc3)CC2)C1`, for which the outcome in the experiment with Glioma [9], in the experiment on Glioma [10], in the experiment with Glioma [11] and in the experiment with Glioma [12] was inactive. Also, the outcome in the experiment on Glioma [13], in the experiment on Glioma [14], with Glioma [15], in the experiment with Glioma [16], in the experiment on Glioma [17] and in the experiment with Glioma [18] was Active.

Turning to `Cn1nnc2c(C(N)=O)ncn2c1=O`, the outcome in the experiment on Glioma [19], in the experiment with Glioma [20], in the experiment with Glioma [21], with Glioma [22], in the experiment with Glioma [23] and in the experiment with Glioma [24] was inactive. In addition, the outcome in the experiment with Glioma [25] was inactive.
